{
  "source": "patent US20190358238A1",
  "about": "“ALLOSTERIC ANTAGONISTS OF GPRC6a AND THEIR USE IN MITIGATING PROTEINOPATHIES” (UNIVERSITY OF SOUTH FLORIDA, priority 2016, published 2019)",
  "key": {"[1]": {"test_system": "C3H/htau cells", "test": "tau expression in C3H/htau cells treated 72 hours, samples run on a gel", "type": "cell-based", "details": "for monomeric and high molecular weight (HMW) tau multimers: 72 hours", "description": "(§1) FIG. 3A, FIG. 3B, FIG. 3C, FIG. 3D. C3H/htau cells treated with siRNA to GPRC6A show decreased tau expression compared to scrambled siRNA (FIG. 3A). GPRC6a allosteric antagonist Cpd#3 (Drug 47661) (0-250 tLM) decreases monomeric and high molecular weight (HMW) tau multimers (FIG. 3B) in C3H/htau cells. FIG. 3C-FIG. 3D show decreased tau in primary neurons after (Drug 47661) decreases tau at 10-100 nM. All treatments=72 hours (n=3 independent exp.).\nFIG. 6. C3H/htau cells treated with GPRC6A antagonist show decreased tau expression compared to vehicle (dotted line and first lane in each well). All GPRC6a allosteric antagonists Drug 47661 (red), PF020 (blue), PF037 (black) (0-100 μM) decreased monomeric and high molecular weight (HMW) tau multimers in C3H/htau cells at different concentrations. All treatments=72 hours (n=3 independent exp.).\nrTg4510 tau mice comprise of the tau P301L mutation which expresses in the forebrain and hippocampus (K. Santacruz, et al. Science 2005, 309, 476). […] Accumulation of ptau occurs largely between 3 and 9 mo of age. Additionally, high-molecular weight tau multimers/oligomers and nitrated tau also accumulate in rTg4510 tau transgenic mice compared to non-transgenic littermates (J. B. Hunt, Jr., et al. J. Neurosci. 2015, 35, 14842). […] In stably tau overexpressing HeLa cells (C3H/htau), siRNA to GPRC6a reduced receptor expression coupled with a reduction in tau […]. We will repress GPRC6a expression in the CNS with rAAV-shRNA-GPRC6a to reduce receptor signaling.\n(§2) Some of the compounds have 9-fold more selectivity for GPRC6a than our current compound in a FRET-based assay (H. Johansson, et al. J. Med. Chem. 2015, 58, 8938), and an excess of 50 derivatives to these current lead compounds will be analyzed. A tetracycline inducible “on” tau fusion-Dendra2 stable cell line will be used, which is a green-to-red irreversible photoswitchable fluorescent protein activated by UV-violet/blue light. We will induce tau expression with tetracycline (1 μg/mL) for 24 h, then photo convert tau dendra2-green with blue light (488 nm) for 10 minutes to tau-dendra2-red for monitoring kinetics of tau. […] We will treat cells with GPRC6a allosteric antagonists for 72 hours with continual red fluorescent output readings every 6 hours (553 nm ex and 573 nm em). This assay will measure tau degradation kinetics over time (time 0 point at which photo switch occurs from tau-green to tau-red) (FIG. 5). Agents that govern tau biology will alter the rate of tau degradation (tau-red). Newly synthesize tau (tau-green) will fluoresce green to be measure on a separated channel. We will also co-label cells with DAPI nuclear stain to account for cell loss and nuclear chromatin changes. We will use Biotek®@ Cytation™ 3 Cell Imaging Multi-Mode Reader located at Byrd Institute. We will use a 96 well semi-high throughput platform with GPRC6a antagonist concentrations ranging from (10 nM-100 μM). We will also perform cell toxicity assays (Cyto Tox-ONE LDH Membrane Integrity Assay, Promega). We will perform western blot analysis in C3H/htau cells from GPRC6a antagonists that reduce tau levels more than 30% at 3 μM or below and with no more than 5-10% toxicity. We will measure autophagy related makers to determine the mechanism for tau reduction.\nC3H/htau cells were treated for 72 hours with varying concentrations of GPRC6A antagonist Drug 47661, PF020, or PF037. Samples were run on a gel. […]"}, "[2]": {"test_system": "primary neurons", "test": "tau in primary neurons after 72 hours treatment", "type": "cell-based", "details": "10-100 nM, endogenous tau, nanomolar efficacy", "description": "as §1\nSome of the compounds have 9-fold more selectivity for GPRC6a than our current compound in a FRET-based assay (H. Johansson, et al. J. Med. Chem. 2015, 58, 8938), and an excess of 50 derivatives to these current lead compounds will be analyzed. A tetracycline inducible “on” tau fusion-Dendra2 stable cell line will be used, which is a green-to-red irreversible photoswitchable fluorescent protein activated by UV-violet/blue light. We will induce tau expression with tetracycline (1 μg/mL) for 24 h, then photo convert tau dendra2-green with blue light (488 nm) for 10 minutes to tau-dendra2-red for monitoring kinetics of tau. […] We will treat cells with GPRC6a allosteric antagonists for 72 hours with continual red fluorescent output readings every 6 hours (553 nm ex and 573 nm em). […] We will use Biotek®@ Cytation™ 3 Cell Imaging Multi-Mode Reader located at Byrd Institute. […]"}, "[3]": {"test_system": "PS 19 tau (P301S) transgenic mice", "test": "acute bolus injection into PS19 tau (P301S) transgenic mice, western blot after 72 hours", "type": "in vivo, mouse", "description": "FIG. 4. GPRC6a allosteric antagonist impacts tau levels and modifies autophagy markers in PS 19 tau transgenic mice. PSI9 (P301S) mice (bottom left of panel) show tau AT8 accumulation received an acute bolus injection of vehicle on one hemisphere and the antagonist (Drug 47661, 78 ng) on the opposite hemisphere for 72 hours.\nas §2"}, "[4]": {"test_system": "BE(2) M17 cells", "test": "alpha synuclein expression in BE(2) M17 cells stably transfected with wild-type alpha synuclein", "type": "cell-based", "details": "72 hours, relative to GAPDH", "description": "FIG. 10. Shown are BE(2) M17 cells stably transfected with wild-type alpha synuclein (16 kDa) treated with GPRC6a antagonist drug 47661 for 72 hours. […] Statistical analysis was performed using One-way Anova with Fisher's LSD multiple comparison test as post hoc. (n=3 independent experiments).\nBE(2) M17 cells were stably transfected with wild-type alpha synuclein (16 kDa) and treated with GPRC6a antagonist drug 47661 for 72 hours. Samples were run on a gel. […] Statistical analysis was performed using One-way Anova with Fisher's LSD multiple comparison test as post hoc."}, "[5]": {"test": "half-life of Drug 47661 in naive mice after IV injection", "type": "in vivo, mouse", "description": "FIG. 9. Graphs show relative half-life of Drug 47661. Naïve mice were injected with 5 mg/kg of Drug 47661 IV. Serial submandibular bleeds were taken 15 min and 60 min post IV injection. […] (N=3).\nThe half-life of GPRC6A antagonist Drug 47661 was examined. Naïve mice were injected with 5 mg/kg of Drug 47661 by IV. Serial submandibular bleeds were taken 15 min and 60 min post IV injection. […] (N=3). Shown in FIG. 9 is a graph showing the relative half-life of Drug 47661."}, "[6]": {"details": "78 ng bolus injection, western blot"}},
  "note": "Entries after “also recorded” stand apart in the source; their conditions may differ.",
  "data": [
    {"compound": "O=C(CN1CCCC(C(=O)N2CCOCC2)C1)c1c(-c2ccccc2)[nH]c2ccccc12", "note": "(stereo not drawn) [PF020, 2-(3-(morpholine-4-carbonyl)piperidin-1-yl)-1-(2-phenyl-1H-indol-3-yl)ethan-1-one]", "values": [
      {"measurement": "monomeric and high molecular weight (HMW) tau multimers", "setting": "[1]; 0-100 μM, vs vehicle, FIG. 6", "result": "decreased"}
    ]},
    {"compound": "CN(CC(=O)c1c(-c2ccccc2)[nH]c2ccccc12)CC(=O)N1CCOCC1", "note": "[Drug 47661, 2-(methyl(2-morpholino-2-oxoethyl)amino)-1-(2-phenyl-1H-indol-3-yl)ethan-1-one]", "values": [
      {"measurement": "tau in primary neurons", "setting": "[2]", "result": "reduced; also recorded: decreased tau"},
      {"measurement": "monomeric and high molecular weight (HMW) tau multimers", "setting": "[1]; 0-100 μM, vs vehicle, FIG. 6", "result": "decreased"},
      {"measurement": "monomeric and high molecular weight (HMW) tau multimers", "setting": "[1]; 0-250 tLM, FIG. 3B", "result": "decreases"},
      {"measurement": "clearance among monomeric, insoluble, and oligomeric tau", "setting": "[1]; micromolar efficacy", "result": "significant clearance"},
      {"measurement": "beclin 1", "setting": "[3]; [6]", "result": "increased"},
      {"measurement": "mTOR", "setting": "[3]; [6]", "result": "decreased"},
      {"measurement": "p62", "setting": "[3]; [6]", "result": "decreased"},
      {"measurement": "tau expression (total tau)", "setting": "[3]; 78 ng one-time bolus injection, entorhinal cortex, vs vehicle hemisphere", "result": "modestly reduced"},
      {"measurement": "monomeric (16 kDa) and oligomeric (>75 kDa) alpha synuclein expression", "setting": "[4]", "result": "decreased"},
      {"measurement": "clearance rate", "setting": "[5]; 5 mg/kg IV (FIG. 9 legend)", "result": 4.5, "unit": "Lh/kg"},
      {"measurement": "half-life", "setting": "[5]; mouse, blood, 5 mg/kg IV", "result": 9.6, "unit": "min"},
      {"measurement": "clearance", "setting": "[5]; mouse, blood, 5 mg/kg IV, read-out: clearance rate (converted)", "result": 75, "unit": "mL/min/kg"},
      {"measurement": "Vd", "setting": "[5]; mouse, blood, 5 mg/kg IV, read-out: volume of distribution", "result": 1.07, "unit": "L/kg"}
    ]},
    {"compound": "CN(CCN1CCOCC1)CC(=O)c1c(-c2ccccc2)[nH]c2ccccc12", "note": "[PF037]", "values": [
      {"measurement": "monomeric and high molecular weight (HMW) tau multimers", "setting": "[1]; 0-100 μM, vs vehicle, FIG. 6", "result": "decreased"}
    ]}
  ]
}
